Reference: patent publication US12404262B2 (priority 2021, dated 2025)

Details: 1.0% DMSO, 24-hour incubation at ambient temperature, maximum theoretical 100 μM; for pH 2 solubility: 0.1N HCl, first value of the cell; for pH 7 solubility: 1×PBS buffer (pH 7.4), second value of the cell

Row | SMILES | pH 2 solubility | pH 7 solubility
1 | CC(C)(C#Cc1ccc(-c2ccc(Cl)c3c(N(CCOP(=O)(O)O)S(C)(=O)=O)nn(CC(F)(F)F)c23)c([C@H](Cc2cc(F)cc(F)c2)NC(=O)Cn2nc(C(F)(F)F)c3c2C(F)(F)[C@@H]2C[C@H]32)n1)S(C)(=O)=O [Compound 19, 2-(N-(4-chloro-7-(2-((S)-1-(2-((3bS,4aR)-5,5-difluoro-3-(trifluoromethyl)-3b,4,4a,5-tetrahydro-1H-cyclopropa[3,4]cyclopenta[1,2-c]pyrazol-1-yl)acetamido)-2-(3,5-difluorophenyl)ethyl)-6-(3-methyl-3-(methylsulfonyl)but-1-yn-1-yl)pyridin-3-yl)-1-(2,2,2-trifluoroethyl)-1H-indazol-3-yl)methylsulfonamido)ethyl dihydrogen phosphate] | 1 μM | 100 μM
2 | COC(=O)CN(C)C(=O)N(c1nn(CC(F)(F)F)c2c(-c3ccc(C#CC(C)(C)S(C)(=O)=O)nc3[C@H](Cc3cc(F)cc(F)c3)NC(=O)Cn3nc(C(F)(F)F)c4c3C(F)(F)[C@@H]3C[C@H]43)ccc(Cl)c12)S(C)(=O)=O [Compound 43, methyl N-((4-chloro-7-(2-((S)-1-(2-((3bS,4aR)-5,5-difluoro-3-(trifluoromethyl)-3b,4,4a,5-tetrahydro-1H-cyclopropa[3,4]cyclopenta[1,2-c]pyrazol-1-yl)acetamido)-2-(3,5-difluorophenyl)ethyl)-6-(3-methyl-3-(methylsulfonyl)but-1-yn-1-yl)pyridin-3-yl)-1-(2,2,2-trifluoroethyl)-1H-indazol-3-yl)(methylsulfonyl)carbamoyl)-N-methylglycinate] | 1/1 μM | 1/1 μM
3 | C[C@H](CN(C)C(=O)N(c1nn(CC(F)(F)F)c2c(-c3ccc(C#CC(C)(C)S(C)(=O)=O)nc3[C@H](Cc3cc(F)cc(F)c3)NC(=O)Cn3nc(C(F)(F)F)c4c3C(F)(F)[C@@H]3C[C@H]43)ccc(Cl)c12)S(C)(=O)=O)OP(=O)(O)O [Compound 49, (R)-1-(3-(4-chloro-7-(2-((S)-1-(2-((3bS,4aR)-5,5-difluoro-3-(trifluoromethyl)-3b,4,4a,5-tetrahydro-1H-cyclopropa[3,4]cyclopenta[1,2-c]pyrazol-1-yl)acetamido)-2-(3,5-difluorophenyl)ethyl)-6-(3-methyl-3-(methylsulfonyl)but-1-yn-1-yl)pyridin-3-yl)-1-(2,2,2-trifluoroethyl)-1H-indazol-3-yl)-1-methyl-3-(methylsulfonyl)ureido)propan-2-yl dihydrogen phosphate] | 1 μM | 82 μM
4 | C[C@H](O)[C@H](C)OC(=O)N(c1nn(CC(F)(F)F)c2c(-c3ccc(C#CC(C)(C)S(C)(=O)=O)nc3[C@H](Cc3cc(F)cc(F)c3)NC(=O)Cn3nc(C(F)(F)F)c4c3C(F)(F)[C@@H]3C[C@H]43)ccc(Cl)c12)S(C)(=O)=O [Compound 95, (2S,3S)-3-hydroxybutan-2-yl (4-chloro-7-(2-((S)-1-(2-((3bS,4aR)-5,5-difluoro-3-(trifluoromethyl)-3b,4,4a,5-tetrahydro-1H-cyclopropa[3,4]cyclopenta[1,2-c]pyrazol-1-yl)acetamido)-2-(3,5-difluorophenyl)ethyl)-6-(3-methyl-3-(methylsulfonyl)but-1-yn-1-yl)pyridin-3-yl)-1-(2,2,2-trifluoroethyl)-1H-indazol-3-yl)(methylsulfonyl)carbamate] | 1 μM | 3 μM
5 | CC(C)(C#Cc1ccc(-c2ccc(Cl)c3c(N(C(=O)O[C@H]4C[C@@H](NC(=N)N)C4)S(C)(=O)=O)nn(CC(F)(F)F)c23)c([C@H](Cc2cc(F)cc(F)c2)NC(=O)Cn2nc(C(F)(F)F)c3c2C(F)(F)[C@@H]2C[C@H]32)n1)S(C)(=O)=O [Compound 127, cis-3-guanidinocyclobutyl (4-chloro-7-(2-((S)-1-(2-((3bS,4aR)-5,5-difluoro-3-(trifluoromethyl)-3b,4,4a,5-tetrahydro-1H-cyclopropa[3,4]cyclopenta[1,2-c]pyrazol-1-yl)acetamido)-2-(3,5-difluorophenyl)ethyl)-6-(3-methyl-3-(methylsulfonyl)but-1-yn-1-yl)pyridin-3-yl)-1-(2,2,2-trifluoroethyl)-1H-indazol-3-yl)(methylsulfonyl)carbamate] | 8 μM | 1 μM
6 | CC(C)(C#Cc1ccc(-c2ccc(Cl)c3c(N(C(=O)OCC(=O)O)S(C)(=O)=O)nn(CC(F)(F)F)c23)c([C@H](Cc2cc(F)cc(F)c2)NC(=O)Cn2nc(C(F)(F)F)c3c2C(F)(F)[C@@H]2C[C@H]32)n1)S(C)(=O)=O [Compound 117, 2-(((4-chloro-7-(2-((S)-1-(2-((3bS,4aR)-5,5-difluoro-3-(trifluoromethyl)-3b,4,4a,5-tetrahydro-1H-cyclopropa[3,4]cyclopenta[1,2-c]pyrazol-1-yl)acetamido)-2-(3,5-difluorophenyl)ethyl)-6-(3-methyl-3-(methylsulfonyl)but-1-yn-1-yl)pyridin-3-yl)-1-(2,2,2-trifluoroethyl)-1H-indazol-3-yl)(methylsulfonyl)carbamoyl)oxy)acetic acid] | 9 μM | 10 μM
7 | CC(C)(C#Cc1ccc(-c2ccc(Cl)c3c(N(C(=O)CCN4CCNCC4)S(C)(=O)=O)nn(CC(F)(F)F)c23)c([C@H](Cc2cc(F)cc(F)c2)NC(=O)Cn2nc(C(F)(F)F)c3c2C(F)(F)[C@@H]2C[C@H]32)n1)S(C)(=O)=O [Compound 9, N-(4-chloro-7-(2-((S)-1-(2-((3bS,4aR)-5,5-difluoro-3-(trifluoromethyl)-3b,4,4a,5-tetrahydro-1H-cyclopropa[3,4]cyclopenta[1,2-c]pyrazol-1-yl)acetamido)-2-(3,5-difluorophenyl)ethyl)-6-(3-methyl-3-(methylsulfonyl)but-1-yn-1-yl)pyridin-3-yl)-1-(2,2,2-trifluoroethyl)-1H-indazol-3-yl)-N-(methylsulfonyl)-3-(piperazin-1-yl)propanamide] | 2 μM | 21 μM
8 | C[C@@H](CC(=O)O)OC(=O)N(c1nn(CC(F)(F)F)c2c(-c3ccc(C#CC(C)(C)S(C)(=O)=O)nc3[C@H](Cc3cc(F)cc(F)c3)NC(=O)Cn3nc(C(F)(F)F)c4c3C(F)(F)[C@@H]3C[C@H]43)ccc(Cl)c12)S(C)(=O)=O [Compound 120, (S)-3-(((4-chloro-7-(2-((S)-1-(2-((3bS,4aR)-5,5-difluoro-3-(trifluoromethyl)-3b,4,4a,5-tetrahydro-1H-cyclopropa[3,4]cyclopenta[1,2-c]pyrazol-1-yl)acetamido)-2-(3,5-difluorophenyl)ethyl)-6-(3-methyl-3-(methylsulfonyl)but-1-yn-1-yl)pyridin-3-yl)-1-(2,2,2-trifluoroethyl)-1H-indazol-3-yl)(methylsulfonyl)carbamoyl)oxy)butanoic acid] | 1 μM | 9 μM
9 | CC(C)(O)CNC(=O)N(c1nn(CC(F)(F)F)c2c(-c3ccc(C#CC(C)(C)S(C)(=O)=O)nc3[C@H](Cc3cc(F)cc(F)c3)NC(=O)Cn3nc(C(F)(F)F)c4c3C(F)(F)[C@@H]3C[C@H]43)ccc(Cl)c12)S(C)(=O)=O [Compound 32, N—((S)-1-(3-(4-chloro-3-(N-((2-hydroxy-2-methylpropyl)carbamoyl)methylsulfonamido)-1-(2,2,2-trifluoroethyl)-1H-indazol-7-yl)-6-(3-methyl-3-(methylsulfonyl)but-1-yn-1-yl)pyridin-2-yl)-2-(3,5-difluorophenyl)ethyl)-2-((3bS,4aR)-5,5-difluoro-3-(trifluoromethyl)-3b,4,4a,5-tetrahydro-1H-cyclopropa[3,4]cyclopenta[1,2-c]pyrazol-1-yl)acetamide] | 1/1 μM | 1/1 μM
10 | CC(C)(C#Cc1ccc(-c2ccc(Cl)c3c(N(C(=O)NCC(=O)O)S(C)(=O)=O)nn(CC(F)(F)F)c23)c([C@H](Cc2cc(F)cc(F)c2)NC(=O)Cn2nc(C(F)(F)F)c3c2C(F)(F)[C@@H]2C[C@H]32)n1)S(C)(=O)=O [Compound 72, ((4-chloro-7-(2-((S)-1-(2-((3bS,4aR)-5,5-difluoro-3-(trifluoromethyl)-3b,4,4a,5-tetrahydro-1H-cyclopropa[3,4]cyclopenta[1,2-c]pyrazol-1-yl)acetamido)-2-(3,5-difluorophenyl)ethyl)-6-(3-methyl-3-(methylsulfonyl)but-1-yn-1-yl)pyridin-3-yl)-1-(2,2,2-trifluoroethyl)-1H-indazol-3-yl)(methylsulfonyl)carbamoyl)glycine] | 1 μM | 9 μM
11 | COC(=O)C(=O)N(c1nn(CC(F)(F)F)c2c(-c3ccc(C#CC(C)(C)S(C)(=O)=O)nc3[C@H](Cc3cc(F)cc(F)c3)NC(=O)Cn3nc(C(F)(F)F)c4c3C(F)(F)[C@@H]3C[C@H]43)ccc(Cl)c12)S(C)(=O)=O [Compound 15, methyl 2-(N-(4-chloro-7-(2-((S)-1-(2-((3bS,4aR)-5,5-difluoro-3-(trifluoromethyl)-3b,4,4a,5-tetrahydro-1H-cyclopropa[3,4]cyclopenta[1,2-c]pyrazol-1-yl)acetamido)-2-(3,5-difluorophenyl)ethyl)-6-(3-methyl-3-(methylsulfonyl)but-1-yn-1-yl)pyridin-3-yl)-1-(2,2,2-trifluoroethyl)-1H-indazol-3-yl)methylsulfonamido)-2-oxoacetate] | 1/1 μM | 1/1 μM
